Patent EP1268545B1, “POTASSIUM CHANNEL PROTEIN KCNQ5, A TARGET FOR DISEASES OF CENTRAL NERVOUS SYSTEM AND CARDIOVASCULAR SYSTEM” (priority 2000, dated 2001)

How the values were obtained:
KCNQ1 = details: cited from earlier work
[1] = tested on: human KCNQ5 (hKCNQ5) potassium channel, SEQ ID No 2; assay: Two-electrode voltage-clamp of KCNQ5 currents in Xenopus oocytes injected with cRNA; assay type: cell-based; details: 3s depolarizing step from -100 mV to 0 mV
Procedure: Xenopus laevis oocytes were obtained from tricaine anaesthetized animals. Ovaries were collagenase treated (1 mg/ 1 ml, Worthington, type II) in OR 2 solution (NaCl 82.5 mM, KCl 2 mM, MgCl2 1 mM, HEPES 5 mM, pH 7.4) for 120 min and subsequently stored in recording solution ND-96 (NaCl 96 mM, KCI 2 mM, CaCl2 1.8 mM, MgCl2 1 mM, HEPES 5 mM, pH 7.4) with additional NaPyruvate (275 mg/l), Theophylline (90 mg/l) and Gentamycin (50 mg/l) at 18°C. […] Standard two-electrode voltage-clamp recordings were performed at room temperature with a Turbo Tec 10CD (NPI) amplifier, an ITC-16 interface combined with Pulse software (HEKA) and Origin for data aquisition on Pentium 11 PC. Macroscopic currents were recorded 2-4 days after injection. All fitting procedures were based on the simplex algorithm. Student's t test was used to test for statistical significance, which was assumed if P<0.05 and indicated by *.
However, it can be described by a biexponential function. […] KCNQ5 deactivation was well fitted to a second order exponential function. The two components of deactivation were determined at a repolarizing voltage of -100 mV following a 3s depolarizing step to +40 mV.

KCNQ2 = details: at 10µM; cited from earlier work
KCNQ3 = details: at 10µM; cited from earlier work

Row | Structure (SMILES) | block of KCNQ1 (KCNQ1; at 100 µM) | block of KCNQ5 currents ([1]; at 100 µM) | inhibition of KCNQ2 (KCNQ2) | IC50 (KCNQ1; read-out: IC50 (block of KCNQ1)) | inhibition of KCNQ3 (KCNQ3) | reduction of KCNQ5 current ([1]; at 30 µM)
1 | CCS(=O)(=O)N(C)[C@H]1c2cc(C#N)ccc2OC(C)(C)[C@@H]1O (racemic) [chromanol 293B] | 80% | 45% |  |  |  | 
2 | CCCCCCC[N+](CC)(CC)CCCCc1ccc(Cl)cc1 [Clofilium] |  |  | little inhibition | < 10 µM | 30% | 40%
